The values below come from ChEMBL document CHEMBL4402510, “Caprazamycins: Promising lead structures acting on a novel antibacterial target MraY” (Eur J Med Chem, 2019).

What all share (assay type): functional
The test system of assay [1] is Mycobacterium tuberculosis. Briefly: Antibacterial activity against Mycobacterium tuberculosis H37Rv.
For assay [2], the system named is Mycobacterium tuberculosis. Briefly: Antibacterial activity against Mycobacterium tuberculosis JCM 6384.
A further assay has as its system Bacillus subtilis. Briefly: Antibacterial activity against Bacillus subtilis PCI 219.
Assay [3] concerns Staphylococcus aureus. Briefly: Antibacterial activity against methicillin resistant Staphylococcus aureus MS16526.
Another assay has as its system Escherichia coli. Briefly: Antibacterial activity against Escherichia coli K-12.
Another assay deals with Mycolicibacterium phlei. Briefly: Antibacterial activity against Mycobacterium phlei.
The next assay concerns Streptococcus pneumoniae. Briefly: Antibacterial activity against Streptococcus pneumoniae PCI 602.
In assay [4] the test system is Mycolicibacterium smegmatis. Briefly: Antibacterial activity against Mycobacterium smegmatis ATCC 607.
Assay [5] relates to Staphylococcus aureus. Briefly: Antibacterial activity against methicillin resistant Staphylococcus aureus No. 5.
For assay [6], the system named is Mycobacterium tuberculosis. Briefly: Antibacterial activity against Mycobacterium tuberculosis Kurono.
A short description of assay [7]: Antibacterial activity against Mycobacterium avium subsp. avium ATCC 25291.
The next assay deals with Mycolicibacterium vaccae. Briefly: Antibacterial activity against Mycobacterium vaccae ATCC 15483.
Assay [8] has as its system Mycobacterium avium subsp. paratuberculosis. Briefly: Antibacterial activity against Mycobacterium avium subsp. paratuberculosis ATCC 43015.
Assay [9] concerns Staphylococcus aureus. Briefly: Antibacterial activity against Staphylococcus aureus FDA 209P.

≈ marks a conversion by molar mass, not a printed value. A value given as a limit tells only on which side of the number the result lay.

`CCCCCCCCCNC(=O)C1=CCN(C)[C@@H]([C@H](O[C@@H]2O[C@H](CN)[C@@H](O)[C@H]2O)[C@H]2O[C@@H](n3ccc(=O)[nH]c3=O)[C@H](O)[C@@H]2O)C(=O)N1C`: the MIC is 1.56 µg/mL (≈ 2.28 µM) in assay [1]; 0.2 µg/mL (≈ 0.293 µM) in assay [2]; 1.56 µg/mL (≈ 2.28 µM) in the assay with Bacillus subtilis; 50 µg/mL (≈ 73.2 µM) against Staphylococcus aureus [3]; > 100 µg/mL in the assay with Escherichia coli; 3.13 µg/mL (≈ 4.58 µM) against Mycolicibacterium phlei. The MIC in the assay with Streptococcus pneumoniae was > 100 µg/mL; in assay [4], 0.78 µg/mL (≈ 1.14 µM); in the assay on Staphylococcus aureus [5], 50 µg/mL (≈ 73.2 µM); in assay [6] it was 0.78 µg/mL (≈ 1.14 µM); in assay [7], 1.56 µg/mL (≈ 2.28 µM); in the assay on Mycolicibacterium vaccae it was 12.5 µg/mL (≈ 18.3 µM). Also, the MIC in assay [8] worked out at 0.2 µg/mL (≈ 0.293 µM); against Staphylococcus aureus [9], 6.25 µg/mL (≈ 9.15 µM).

With `CCCCCCCCCCNC(=O)C1=CCN(C)[C@@H]([C@H](O[C@@H]2O[C@H](CN)[C@@H](O)[C@H]2O)[C@H]2O[C@@H](n3ccc(=O)[nH]c3=O)[C@H](O)[C@@H]2O)C(=O)N1C`, the minimum inhibitory concentration (MIC) in assay [1] is 1.56 µg/mL (≈ 2.24 µM); in assay [2], 0.78 µg/mL (≈ 1.12 µM); in the assay with Bacillus subtilis, > 100 µg/mL; against Staphylococcus aureus [3] it was > 100 µg/mL; with Escherichia coli, > 100 µg/mL; in the assay with Mycolicibacterium phlei, 25 µg/mL (≈ 35.9 µM). Moreover, the MIC in the assay on Streptococcus pneumoniae was > 100 µg/mL; in [4] it was 6.25 µg/mL (≈ 8.97 µM); against Staphylococcus aureus [5] it was > 100 µg/mL; in assay [6], 1.56 µg/mL (≈ 2.24 µM); in assay [7], 0.39 µg/mL (≈ 0.56 µM); in the assay on Mycolicibacterium vaccae it was 50 µg/mL (≈ 71.8 µM). Also, the MIC in [8] came out at 6.25 µg/mL (≈ 8.97 µM); in the assay on Staphylococcus aureus [9], 0.78 µg/mL (≈ 1.12 µM).

Regarding `CCCCCCCCCCCCCCCCCCNC(=O)C1=CCN(C)[C@@H]([C@H](O[C@@H]2O[C@H](CN)[C@@H](O)[C@H]2O)[C@H]2O[C@@H](n3ccc(=O)[nH]c3=O)[C@H](O)[C@@H]2O)C(=O)N1C`, the MIC in assay [1] is 1.56 µg/mL (≈ 1.93 µM); in assay [2], 0.78 µg/mL (≈ 0.964 µM); in the assay with Bacillus subtilis, < 0.2 µg/mL; in the assay on Staphylococcus aureus [3] it was 6.25 µg/mL (≈ 7.73 µM); against Escherichia coli it was > 100 µg/mL; with Mycolicibacterium phlei, 3.13 µg/mL (≈ 3.87 µM). The MIC against Streptococcus pneumoniae was > 100 µg/mL; in assay [4] it was 6.25 µg/mL (≈ 7.73 µM); with Staphylococcus aureus [5], 6.25 µg/mL (≈ 7.73 µM); in assay [6], 1.56 µg/mL (≈ 1.93 µM); in assay [7], 0.78 µg/mL (≈ 0.964 µM); against Mycolicibacterium vaccae it was 3.13 µg/mL (≈ 3.87 µM). Moreover, the MIC in [8] was determined as 0.39 µg/mL (≈ 0.482 µM); against Staphylococcus aureus [9], 6.25 µg/mL (≈ 7.73 µM).

For the molecule `CCCCCCCCCCCCCCNC(=O)C1=CCN(C)[C@@H]([C@H](O[C@@H]2O[C@H](CN)[C@@H](O)[C@H]2O)[C@H]2O[C@@H](n3ccc(=O)[nH]c3=O)[C@H](O)[C@@H]2O)C(=O)N1C`, the minimal inhibitory concentration (MIC) was 1.56 µg/mL (≈ 2.07 µM) in [1]; 0.39 µg/mL (≈ 0.518 µM) in assay [2]; 0.2 µg/mL (≈ 0.266 µM) against Bacillus subtilis; 3.13 µg/mL (≈ 4.16 µM) in the assay with Staphylococcus aureus [3]; > 100 µg/mL against Escherichia coli; 0.78 µg/mL (≈ 1.04 µM) in the assay on Mycolicibacterium phlei. Moreover, the MIC in the assay with Streptococcus pneumoniae was found to be 12.5 µg/mL (≈ 16.6 µM); in assay [4], 1.56 µg/mL (≈ 2.07 µM); in the assay on Staphylococcus aureus [5] it was 6.25 µg/mL (≈ 8.3 µM); in assay [6], 1.56 µg/mL (≈ 2.07 µM); in assay [7], 3.13 µg/mL (≈ 4.16 µM); against Mycolicibacterium vaccae, 1.56 µg/mL (≈ 2.07 µM). Besides, the minimum inhibitory concentration (MIC) in assay [8] stood at 0.39 µg/mL (≈ 0.518 µM); in the assay on Staphylococcus aureus [9] it was 3.13 µg/mL (≈ 4.16 µM).

Consider `CCCCCCCCCCCCCCCCCCCNC(=O)C1=CCN(C)[C@@H]([C@H](O[C@@H]2O[C@H](CN)[C@@H](O)[C@H]2O)[C@H]2O[C@@H](n3ccc(=O)[nH]c3=O)[C@H](O)[C@@H]2O)C(=O)N1C`, for which the MIC in assay [1] was 1.56 µg/mL (≈ 1.9 µM); in assay [2] it was 0.78 µg/mL (≈ 0.948 µM); with Bacillus subtilis, 0.78 µg/mL (≈ 0.948 µM); in the assay on Staphylococcus aureus [3], 6.25 µg/mL (≈ 7.59 µM); against Escherichia coli, > 100 µg/mL; against Mycolicibacterium phlei it was 25 µg/mL (≈ 30.4 µM). In addition, the MIC in the assay on Streptococcus pneumoniae was > 100 µg/mL; in [4], 12.5 µg/mL (≈ 15.2 µM); against Staphylococcus aureus [5] it was 6.25 µg/mL (≈ 7.59 µM); in assay [6], 1.56 µg/mL (≈ 1.9 µM); in [7], 1.56 µg/mL (≈ 1.9 µM); against Mycolicibacterium vaccae, 3.13 µg/mL (≈ 3.8 µM). In addition, the MIC in assay [8] came out at 0.78 µg/mL (≈ 0.948 µM); in the assay on Staphylococcus aureus [9] it was 6.25 µg/mL (≈ 7.59 µM).

As to `CCCCCCCCCCCNC(=O)C1=CCN(C)[C@@H]([C@H](O[C@@H]2O[C@H](CN)[C@@H](O)[C@H]2O)[C@H]2O[C@@H](n3ccc(=O)[nH]c3=O)[C@H](O)[C@@H]2O)C(=O)N1C`, the MIC in assay [1] was 1.56 µg/mL (≈ 2.19 µM); in assay [2], 0.2 µg/mL (≈ 0.281 µM); in the assay with Bacillus subtilis, 0.39 µg/mL (≈ 0.549 µM); against Staphylococcus aureus [3], 12.5 µg/mL (≈ 17.6 µM); in the assay on Escherichia coli, > 100 µg/mL; with Mycolicibacterium phlei, 0.39 µg/mL (≈ 0.549 µM). For the same molecule, the MIC in the assay with Streptococcus pneumoniae was 50 µg/mL (≈ 70.3 µM); in assay [4], < 0.2 µg/mL; against Staphylococcus aureus [5], 25 µg/mL (≈ 35.2 µM); in assay [6], 1.56 µg/mL (≈ 2.19 µM); in assay [7], 3.13 µg/mL (≈ 4.4 µM); with Mycolicibacterium vaccae it was 1.56 µg/mL (≈ 2.19 µM). The figures for the MIC (in [8]; against Staphylococcus aureus [9]) were 0.2 µg/mL (≈ 0.281 µM) and 6.25 µg/mL (≈ 8.79 µM), respectively.

Take `CCCCCCCCNC(=O)C1=CCN(C)[C@@H]([C@H](O[C@@H]2O[C@H](CN)[C@@H](O)[C@H]2O)[C@H]2O[C@@H](n3ccc(=O)[nH]c3=O)[C@H](O)[C@@H]2O)C(=O)N1C`: the MIC is 3.3 µg/mL (≈ 4.93 µM) in assay [1]; 12.5 µg/mL (≈ 18.7 µM) in assay [2]; > 100 µg/mL against Bacillus subtilis; > 100 µg/mL against Staphylococcus aureus [3]; > 100 µg/mL against Escherichia coli; 100 µg/mL (≈ 150 µM) with Mycolicibacterium phlei. Also, the MIC against Streptococcus pneumoniae was > 100 µg/mL; in [4] it was 6.25 µg/mL (≈ 9.35 µM); against Staphylococcus aureus [5], 3.13 µg/mL (≈ 4.68 µM); in assay [6] it was 0.78 µg/mL (≈ 1.17 µM); in assay [7] it was 3.13 µg/mL (≈ 4.68 µM); in the assay with Mycolicibacterium vaccae it was 100 µg/mL (≈ 150 µM). In addition, the MIC in assay [8] came to 25 µg/mL (≈ 37.4 µM); in the assay on Staphylococcus aureus [9] it was 100 µg/mL (≈ 150 µM).

`CCCCCCCCCCCCCNC(=O)C1=CCN(C)[C@@H]([C@H](O[C@@H]2O[C@H](CN)[C@@H](O)[C@H]2O)[C@H]2O[C@@H](n3ccc(=O)[nH]c3=O)[C@H](O)[C@@H]2O)C(=O)N1C`: the MIC in assay [1] amounted to 1.56 µg/mL (≈ 2.11 µM); in assay [2], 0.2 µg/mL (≈ 0.271 µM); against Bacillus subtilis, 0.39 µg/mL (≈ 0.528 µM); in the assay with Staphylococcus aureus [3], 3.13 µg/mL (≈ 4.24 µM); in the assay with Escherichia coli, 100 µg/mL (≈ 135 µM); with Mycolicibacterium phlei, 0.78 µg/mL (≈ 1.06 µM). Also, the MIC with Streptococcus pneumoniae is 6.25 µg/mL (≈ 8.46 µM); in [4] it was 0.39 µg/mL (≈ 0.528 µM); in the assay on Staphylococcus aureus [5], 6.25 µg/mL (≈ 8.46 µM); in assay [6], 1.56 µg/mL (≈ 2.11 µM); in assay [7], 3.13 µg/mL (≈ 4.24 µM); against Mycolicibacterium vaccae, 0.78 µg/mL (≈ 1.06 µM). Moreover, the results for the MIC (in assay [8]; against Staphylococcus aureus [9]) were 0.1 µg/mL (≈ 0.135 µM) and 3.13 µg/mL (≈ 4.24 µM), respectively.

Turning to `CCCCCCCCCCCCCCCCCCOC(=O)C1=CCN(C)[C@@H]([C@H](O[C@@H]2O[C@H](CN)[C@@H](O)[C@H]2O)[C@H]2O[C@@H](n3ccc(=O)[nH]c3=O)[C@H](O)[C@@H]2O)C(=O)N1C`, the minimum inhibitory concentration (MIC) in assay [1] was 6.25 µg/mL (≈ 7.72 µM); in [2], 6.25 µg/mL (≈ 7.72 µM); in the assay on Bacillus subtilis it was 3.13 µg/mL (≈ 3.86 µM); in the assay with Staphylococcus aureus [3], 50 µg/mL (≈ 61.7 µM); against Escherichia coli, > 100 µg/mL; with Mycolicibacterium phlei, > 100 µg/mL. Moreover, the MIC against Streptococcus pneumoniae was > 100 µg/mL; in assay [4], > 100 µg/mL; in the assay on Staphylococcus aureus [5] it was 50 µg/mL (≈ 61.7 µM); in assay [6] it was 3.13 µg/mL (≈ 3.86 µM); in assay [7], 12.5 µg/mL (≈ 15.4 µM); in the assay with Mycolicibacterium vaccae, > 100 µg/mL. The MIC in assay [8] was 3.13 µg/mL (≈ 3.86 µM); with Staphylococcus aureus [9] it was 25 µg/mL (≈ 30.9 µM).

As a reminder, the MIC is the least concentration at which growth counts as inhibited.
